These results are taken from PubChem BioAssay (NCI).

Molecules are shown by their SMILES.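 1) Cells in 96-well plates. 2) Compound, 48 h, 5 concentrations. 3) Linear interpolation between surrounding doses. 4) Unreached endpoint = highest concentration. GI50 is the concentration that inhibits growth by half. TGI marks complete inhibition of growth.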

What all share (assay): NCI tumour cell line growth inhibition, 48 h
Experiment [1] concerns DLD-1 colon.
The subject of experiment [2] is DMS 114 small cell lung.
Experiment [3] concerns HOP-18 NSCLC.
Experiment [4] concerns LXFL 529 NSCLC.
For experiment [5], the system named is M19-MEL melanoma.
Experiment [6] has as its system RXF-631 renal.
Experiment [7] deals with SNB-78 CNS.
For experiment [8], the system named is XF 498 CNS.
The test system of experiment [9] is MDA-N.
The subject of experiment [10] is P388 leukemia.
For experiment [11], the system named is P388/ADR leukemia.
The test system of experiment [12] is SN12K1 renal.

As for `CSc1n[n+]2c(s1)SCCC2`, the TGI in [1], in [2], in experiment [3], in [4], in experiment [5] and in experiment [6] was over 100 µM in each case. The TGI in [7] and in experiment [8] was over 100 µM each time.
For the compound `O=Cc1cccc2c1Oc1c(cccc1C(=O)O)S2`, in experiment [9], the TGI was over 100 µM.
As for `FC(F)(F)C1(Br)C(c2ccccc2)=C1c1ccccc1`, the TGI is 43 µM in [1]; 31.4 µM in experiment [2]; 31.1 µM in [3]; 28.1 µM in experiment [4]; 30 µM in [5]; over 100 µM in [6]. Further, the TGI in experiment [7] was 96.6 µM; in experiment [8], 30.7 µM.
`CCOC(=N)/C(=C1\OC(N)=C(c2ccc(Cl)cc2)C1=O)c1ccc(Cl)cc1`: the TGI in [1] was 28.8 µM; in experiment [2], 40.6 µM; in experiment [3], 72.6 µM; in experiment [4] it was 27.8 µM; in [5], 34.7 µM; in experiment [6] it was 80.4 µM. In addition, the TGI was over 100 µM in experiment [7] and 23.6 µM in experiment [8].
For `COC1=CC(=O)C2C(C1=O)C(c1ccccc1)[C@H]2C` (stereo partly drawn), the TGI is over 10 µM in experiment [1], over 100 µM in experiment [4], over 10 µM in experiment [7] and 49.1 µM in experiment [8].
As for `C[N+](C)(C)CC(=O)N/N=C(\C(=O)NC1=C(Cl)C(=O)c2ccccc2C1=O)C(C#N)c1csc(-c2ccc([N+](=O)[O-])cc2)n1` (stereo not drawn), the TGI in [1], in experiment [2], in [3], in [4], in experiment [5] and in experiment [6] was over 100 µM each time. Further, the TGI in [7] and in experiment [8] was over 100 µM throughout.
As to `CCOc1cccc2ccc[n+](CC)c12`, the TGI in [1], in experiment [2], in experiment [3], in [4], in experiment [5] and in experiment [6] was over 100 µM each time. This compound also showed a TGI in [8] of over 100 µM.
`Cc1cc(C)c(NC(=S)NC(=O)c2ccccc2)cc1C`: the TGI in experiment [9] was over 100 µM.
For `COC(=O)C1[C@H](c2cc(OC)c(OC)c(OC)c2)OC(=O)C1(C(=O)OC)C(=O)c1ccc2c(c1)OCO2` (stereo partly drawn), the TGI in experiment [1], in experiment [2], in experiment [4], in [5], in experiment [7] and in experiment [8] was over 100 µM each time.
Take `COc1ccc2nc3cc([N+](=O)[O-])ccc3c(NCCCN(C)C)c2c1`: in experiment [9], the GI50 is 0.491 µM and the TGI stood at 2 µM.
With `N#C/C(=C1\SC(N=Nc2ccccc2)C(=O)N1c1ccccc1)c1nc2ccccc2[nH]1` (stereo not drawn), the TGI was over 100 µM in [1]; over 100 µM in experiment [2]; over 100 µM in experiment [4]; over 100 µM in experiment [5]; over 100 µM in [7]; 85 µM in [8].
Turning to `CC(C)(C)C(=O)OCC1CCC(n2cnc3c(=O)[nH]c(N)nc32)O1` (stereo not drawn), the TGI in [2], in experiment [3], in [5], in [7] and in [8] was over 100 µM each time.
In the case of `CCc1cccc(CC)c1NC(=O)C1=C(C)NC(C)=C(C(=O)Nc2c(CC)cccc2CC)C1c1ccc([N+](=O)[O-])cc1`, the TGI in [1] is over 100 µM; in experiment [2], 52.4 µM; in experiment [4], 33.1 µM; in [5], 69.2 µM; in experiment [8], 39.5 µM.
`COc1ccc(-c2c3c(n(C4OC(COC(C)=O)C(OC(C)=O)C(OC(C)=O)C4OC(C)=O)c(=S)c2C#N)CC(C)(C)CC3=O)cc1` (stereo not drawn) returned a TGI in experiment [9] of over 100 µM.
With `O=C(Nc1cccc(O)c1)C(=O)C(C(=O)c1ccc(Cl)c(Cl)c1)C1OC(=O)c2ccccc21` (stereo not drawn), the TGI in experiment [2] is 33.3 µM; in experiment [3] it was over 100 µM; in experiment [4] it was 24.6 µM; in experiment [5], 27.1 µM; in experiment [7] it was over 100 µM; in experiment [8] it was 25.6 µM.
Regarding `Nc1ccn(C2OC(COC(=O)C34CC5CC(CC(C5)C3)C4)C(O)C2O)c(=O)n1` (stereo not drawn), the TGI in experiment [1], in experiment [2], in experiment [3], in [5], in experiment [9] and in [10] was over 100 µM throughout. The TGI in [11], in experiment [12] and in [7] was over 100 µM throughout.
Regarding `CCc1cc(CCC(=O)Nc2c(C)cccc2C)[nH]n1`, the TGI in [1], in experiment [3], in [4], in experiment [5], in [6] and in experiment [7] was over 100 µM throughout. The same compound gave a TGI in experiment [8] of over 100 µM.
Turning to `CN(C)c1nc(=Nc2cccc(Cl)c2)ss1`, the TGI is 24.8 µM in experiment [1]; 25.8 µM in experiment [2]; over 100 µM in [3]; 21.7 µM in experiment [4]; 32.6 µM in [5]; 26.8 µM in experiment [6]. The TGI in [7] worked out at 34 µM; in experiment [8], 32.4 µM.
Take `Cc1ccc(S(=O)(=O)NNC(=O)c2cc(C)c(C)cc2N)cc1`: the TGI in experiment [9] is over 100 µM.
The compound `COc1cccc(C2c3cc4c(cc3OC(N3CCCC3)C2C)OCO4)c1O` (stereo not drawn) returned a TGI in experiment [9] of 4.38 µM.
Take `SCCSCCCSCCS`: the TGI in [9] is over 100 µM.
